Measurements as given in patent publication US10751339B2, “Substituted aminopyrimidine compounds and methods of use” (SUNSHINE LAKE PHARMA CO., LTD., priority 2018, dated 2020).

Columns and labels:
[1] = Compound stability in human liver microsomes; format: in vitro ADME; conditions: pH 7.4; for CLint scaled at 5 μM: liver microsomes, in vivo CLint extrapolated from human liver microsome incubation; for half-life at 5 μM: human liver microsomes 0.5 mg protein/mL, compound 5 μM, NADPH, 37° C., read-out: Human T1/2
Experimental: (§1) Human or rat liver microsomes incubations were conducted in duplicate in polypropylene tubes. The typical incubation mixtures consisted of human or rat liver microsomes (0.5 mg protein/mL), compounds of interest (5 μM) and NADPH (1.0 mM) in a total volume of 200 μL potassium phosphate buffer (PBS, 100 mM, pH 7.4). Compounds were dissolved in DMSO and diluted with PBS such that the final concentration of DMSO was 0.05%. The enzymatic reactions were commenced with the addition of protein after a 3-min preincubation and incubated in a water bath open to the air at 37° C. Reactions were terminated at various time points (0, 5, 10, 15, 30, 60 min) by adding equal volume of ice-cold acetonitrile. The samples were stored at −80° C. until LC/MS/MS assays.
(§2) The concentrations of compounds in the incubation mixtures of human or rat liver microsomes were determined by a LC/MS/MS method. The ranges of the linearity in the concentration range were determined for each tested compounds.
(§3) A parallel incubation was performed using denatured microsomes as the negative control, and reactions were terminated at various time points (0, 15, 60 min) after incubation at 37° C.
(§4) Dextromethorphan (70 μM) was selected as the positive control, and reactions were terminated at various time points (0, 5, 10, 15, 30, 60 min) after incubation at 37° C. Both positive and negative control samples were included in each assay to ensure the integrity of the microsomal incubation system.
(§5) The concentrations of compounds in human or rat liver microsome incubations were plotted as a percentage of the relevant zero time point control for each reaction.

[2] = Compound stability in rat liver microsomes; format: in vitro ADME; conditions: pH 7.4; for CLint scaled at 5 μM: liver microsomes, in vivo CLint extrapolated from rat liver microsome incubation; for half-life at 5 μM: rat liver microsomes 0.5 mg protein/mL, compound 5 μM, NADPH, 37° C., read-out: Rat T1/2
Experimental: as §1, §2, §3, §4, §5

CLint scaled at 5 μM [1] | half-life at 5 μM [1] | CLint scaled at 5 μM [2] | half-life at 5 μM [2] | SMILES
24.2 mL/min/kg | 71.9 min | 41.6 mL/min/kg | 59.7 min | Cc1nc(-c2c(N)ncnc2N[C@@H](C)c2nc3cccc(C#CC(C)O)c3c(=O)n2-c2ccccc2)no1 (stereo partly drawn) [Example 6, 2-((S)-1-((6-amino-5-(5-methyl-1,2,4-oxadiazol-3-yl)pyrimidin-4-yl)amino)ethyl)-5-(3-hydroxybut-1-yn-1-yl)-3-phenylquinazolin-4(3H)-one]
15.7 mL/min/kg | 111 min | 32.9 mL/min/kg | 75.4 min | CC(O)C#Cc1cccc2nc([C@H](C)Nc3ncnc(N)c3-c3nnn(C)n3)n(-c3ccccc3)c(=O)c12 (stereo partly drawn) [Example 8, 2-((S)-1-((6-amino-5-(2-methyl-2H-tetrazol-5-yl)pyrimidin-4-yl)amino)ethyl)-5-(3-hydroxybut-1-yn-1-yl)-3-phenylquinazolin-4(3H)-one]
63 mL/min/kg | 27.6 min | 97.4 mL/min/kg | 25.5 min | CC#Cc1cccc2nc([C@H](C)Nc3ncnc(N)c3-c3noc(C)n3)n(-c3ccccc3)c(=O)c12 [Example 11, (S)-2-(1-((6-amino-5-(5-methyl-1,2,4-oxadiazol-3-yl)pyrimidin-4-yl)amino)ethyl)-3-phenyl-5-(prop-1-yn-1-yl)quinazolin-4(3H)-one]
98 mL/min/kg | 17.7 min | 70.9 mL/min/kg | 35 min | CC#Cc1cccc2nc([C@H](C)Nc3ncnc(N)c3-c3nnn(C)n3)n(-c3ccccc3)c(=O)c12 [Example 12, (S)-2-(1-((6-amino-5-(2-methyl-2H-tetrazol-5-yl)pyrimidin-4-yl)amino)ethyl)-3-phenyl-5-(prop-1-yn-1-yl)quinazolin-4(3H)-one]
105 mL/min/kg | 16.6 min | 91 mL/min/kg | 27.3 min | CC#Cc1cccc2nc([C@H](CC)Nc3ncnc(N)c3-c3nnc(C)o3)n(C3CC3)c(=O)c12 [Example 27, (S)-2-(1-((6-amino-5-(5-methyl-1,3,4-oxadiazol-2-yl)pyrimidin-4-yl)amino)propyl)-3-cyclopropyl-5-(prop-1-yn-1-yl)quinazolin-4(3H)-one]
26.2 mL/min/kg | 66.4 min | 22.1 mL/min/kg | 112 min | Cc1noc(-c2c(N)ncnc2N[C@@H](C)c2nc3cccc(C#CCO)c3c(=O)n2C2CC2)n1 [Example 30, (S)-2-(1-((6-amino-5-(3-methyl-1,2,4-oxadiazol-5-yl)pyrimidin-4-yl)amino)ethyl)-3-cyclopropyl-5-(3-hydroxyprop-1-yn-1-yl)quinazolin-4(3H)-one]
28.9 mL/min/kg | 60.2 min | 43 mL/min/kg | 57.7 min | C[C@H](Nc1ncnc(N)c1-c1nnn(C)n1)c1nc2cccc(C#CCO)c2c(=O)n1-c1ccccc1 [Example 39, (S)-2-(1-((6-amino-5-(2-methyl-2H-tetrazol-5-yl)pyrimidin-4-yl)amino)ethyl)-5-(3-hydroxyprop-1-yn-1-yl)-3-phenylquinazolin-4(3H)-one]
105 mL/min/kg | 16.6 min | 111 mL/min/kg | 22.3 min | C#Cc1cccc2nc([C@H](C)Nc3ncnc(N)c3-c3nc(C)no3)n(C3CC3)c(=O)c12 [Example 43, (S)-2-(1-((6-amino-5-(3-methyl-1,2,4-oxadiazol-5-yl)pyrimidin-4-1)amino)ethyl)-3-cyclopropyl-5-ethynylquinazolin-4(3H)-one]
297 mL/min/kg | 5.85 min | 169 mL/min/kg | 14.7 min | C#Cc1cccc2nc([C@H](C)Nc3ncnc(N)c3-c3nc(C)no3)n(-c3ccccc3)c(=O)c12 [Example 44, (S)-2-(1-((6-amino-5-(3-methyl-1,2,4-oxadiazol-5-yl)pyrimidin-4-yl)amino)ethyl)-5-ethynyl-3-phenylquinazolin-4(3H)-one]
301 mL/min/kg | 5.77 min | 87.2 mL/min/kg | 28.5 min | C#Cc1cccc2nc([C@H](C)Nc3ncnc(N)c3-c3nnc(C)o3)n(-c3ccccc3)c(=O)c12 [Example 45, (S)-2-(1-((6-amino-5-(5-methyl-1,3,4-oxadiazol-2-yl)pyrimidin-4-yl)amino)ethyl)-5-ethynyl-3-phenylquinazolin-4(3H)-one]
49.2 mL/min/kg | 35.3 min | 60.8 mL/min/kg | 40.8 min | C[C@H](Nc1ncnc(N)c1-c1ncn(C)n1)c1nc2cccc(C#CCO)c2c(=O)n1-c1ccccc1 [Example 46, (S)-2-(1-((6-amino-5-(1-methyl-1H-1,2,4-triazol-3-yl)pyrimidin-4-yl)amino)ethyl)-5-(3-hydroxyprop-1-yn-1-yl)-3-phenylquinazolin-4(3H)-one]
287 mL/min/kg | 6.05 min | 140 mL/min/kg | 17.8 min | C#Cc1cccc2nc([C@H](C)Nc3ncnc(N)c3-c3noc(C)n3)n(-c3ccccc3)c(=O)c12 [Example 47, (S)-2-(1-((6-amino-5-(5-methyl-1,2,4-oxadiazol-3-yl)pyrimidin-4-yl)amino)ethyl)-5-ethynyl-3-phenylquinazolin-4(3H)-one]
311 mL/min/kg | 5.6 min | 172 mL/min/kg | 14.5 min | C#Cc1cccc2nc([C@H](C)Nc3ncnc(N)c3-c3nnn(C)n3)n(-c3ccccc3)c(=O)c12 [Example 48, (S)-2-(1-((6-amino-5-(2-methyl-2H-tetrazol-5-yl)pyrimidin-4-yl)amino)ethyl)-5-ethynyl-3-phenylquinazolin-4(3H)-one]
259 mL/min/kg | 6.7 min | 107 mL/min/kg | 23.2 min | C#Cc1cccc2nc([C@H](C)Nc3ncnc(N)c3-c3ncn(C)n3)n(-c3ccccc3)c(=O)c12 [Example 49, (S)-2-(1-((6-amino-5-(1-methyl-1H-1,2,4-triazol-3-yl)pyrimidin-4-yl)amino)ethyl)-5-ethynyl-3-phenylquinazolin-4(3H)-one]
47.7 mL/min/kg | 36.5 min | 34.8 mL/min/kg | 71.4 min | C#Cc1cccc2nc([C@H](C)Nc3ncnc(N)c3-c3nnc(C)o3)n(C3CC3)c(=O)c12 [Example 50, (S)-2-(1-((6-amino-5-(5-methyl-1,3 4-oxadiazol-2-yl)pyrimidin-4-yl)amino)ethyl)-3-cyclopropyl-5-ethynylquinazolin-4(3H)-one]
118 mL/min/kg | 14.8 min | 133 mL/min/kg | 18.7 min | C#Cc1cccc2nc([C@H](C)Nc3ncnc(N)c3-c3noc(C)n3)n(C3CC3)c(=O)c12 [Example 51, (S)-2-(1-((6-amino-5-(5-methyl-1,2,4-oxadiazol-3-yl)pyrimidin-4-yl)amino)ethyl)-3-cyclopropyl-5-ethynylquinazolin-4(3H)-one]
74.5 mL/min/kg | 23.4 min | 70.9 mL/min/kg | 35 min | C#Cc1cccc2nc([C@H](C)Nc3ncnc(N)c3-c3ncn(C)n3)n(C3CC3)c(=O)c12 [Example 53, (S)-2-(1-((6-amino-5-(1-methyl-1H-1,2,4-triazol-3-yl)pyrimidin-4-yl)amino)ethyl)-3-cyclopropyl-5-ethynylquinazolin-4(3H)-one]
